The results in this text go back to patent US20080124813A1, “Bead-based radioimmunoassay” (Phoenix Pharmaceuticals, Inc., priority 2006, published 2008).

No end group written: not given here.

Assay [1] concerns anti-ghrelin antibody. Put plainly: Time course of I^125-ghrelin binding to anti-ghrelin antibody-conjugated bead. Particulars: room temp (21° C.), 0-249 min, FIG. 3. The procedure:
A particular embodiment of the immunoassay method for dissociable capture of radiolabeled ghrelin peptide by solid phase linked antibody can be performed as follows:
1. Combine 100 ul of I^125-ghrelin (specific activity 3.15 p mole/ml) prepared in accordance with Example 1.3 (Example 1 step 3) to each of eight aliquots of 50 μL antibody-conjugated beads and to each of two aliquots of 50 μL glycine-conjugated beads prepared in accordance with Example 2B suspended in stock solution (0.01 M Tris (pH 7.4), 0.1% NaN3, 0.1% w/v bovine serum albumin (BSA), 0.15M NaCl, and 0.001M EDTA.
2. Incubate antibody-conjugated beads at room temp (21° C.) for 0, 5, 10, 15, 30, 60, 120, and 249 min.
3. To each incubated mixture of antibody-conjugated beads and I^125-ghrelin add 1.5 ml RIA buffer (150 mM NaCl, 100 mM sodium phosphate, 1% BSA and 1% Triton X-100), mix, and centrifuge for 5 minutes at 17,000× g. Aspirate off the supernatant. 4. Wash once with 1 ml RIA buffer. Aspirate off the supernatant
5. Measure and record counts per minute for each assay tube.
The results shown are the means of duplicates. The counts from gamma counter represent the specific binding by anti-ghrelin antibody. The binding curve was generated using a non-linear least square fitting program in GraphPad Prism (version 2.01).

The target in the next assay is insulysin (IDE) (Homo sapiens, UniProt P14735). Description: Peptide degradation by insulysin (IDE), read out by bead-based RIA. The assay is classed as biochemical. Particulars: for degradation kinetics with insulysin (IDE): 37° C., 0-15 min, means of duplicates, FIGS. 10 and 11. The source says: Now referring primarily to FIGS. 10, 11 and 12 and Example 12, an embodiment of the inventive immunoassay system (1) allows for the coincident measurement of the degradation of a plurality of target particles (7) contained in the same immunoassay sample (6). […] Similarly, now referring to FIG. 11, the inventive immunoassay method can be used to determine the decreased concentration of amylin in an immunoassay sample (6) upon degradation by IDE.
1. Prepare separately solutions of 200 pg/mL of human glucagon (adjust with I^125-glucagon) and 40 pg/mL of human amylin (adjust with I^125-amylin) each in a total volume of 2 mL.
2. Prepare a digestion solution of insulysin (IDE) 6.2 μg in 3.1 mL of 0.15M NaCl, 25 mM Tris, pH7.5. Aliquote 0.4 mL to a tube for total of 12 tubes of digestion solution.
3. Add to the digestion solution with above 0.4 mL of human glucagon or amylin solution.
4. Incubate at 37° C. for a time interval at 15, 10, 7, 5, 3, 1 min and a tube without the incubation.
5. At the indicated time, add 40 μL protease inhibitor (bacitracin 2 mg/ml final concentration) and 300 μL of 10 mM ammonium chloride to stop the reaction.
6. Transfer 50 μL antibody conjugated bead prepared in accordance with Example 2B, 120 μL RIA buffer, 50 μl aprotinin and 80 μL of digested I^125-labeled peptide solution to 1 mL conical tube and incubate with agitation for 30 min.
7. Spin 5 min at 16000×g to pellet the beads and discard supernatant.
8. Add 1 mL of RIA buffer and centrifuge at 1700×g for 5 min.
9. Remove the supernatant and count the CPM of the pellet by gamma counter.

The target in assay [2] is anti-ghrelin antibody. Put plainly: 150 μl small volume competitive radiolabeled ghrelin binding by bead-linked antibody (bead-based RIA). Particulars: competition with I^125-ghrelin, total volume about 150 μl; stated as comparable to conventional RIA of Example 1. On the procedure: A particular embodiment of the immunoassay method for competitive dissociable capture of radiolabeled ghrelin peptide by solid phase linked antibody to determine ghrelin peptide concentration in a 150 μl small volume immunoassay sample can be performed as follows:
1. Combine 25 μl of antibody conjugated beads in stock solution prepared in accordance with Example 2B to 50 μl human plasma or 50 μl standard solution.
2. Mix the resulting combination and incubate 6 hrs at 4° C.
3. Add 25 μl of I^125-ghrelin prepared in accordance with Example 1.3 and 50 μl RIA buffer.
4. Incubate 16-18 hrs. at 4° C.
5. Add 1.5 ml RIA buffer to incubated mixture and centrifuge for 5 minutes at 17,000× g. Aspirate off the supernatant (except total counts tubes). 6. Wash once with 1 ml RIA buffer. Aspirate off the supernatant (except total counts tubes).
7. Measure and record counts per minute for each assay tube.
The plasma concentration was interpolated from standard curves and indicate about 18.7 pg in 150 ul solution. The amounts of isotope labeled-ligands applied (as indicated in total counts tubes) was twice that of the conventional RIA described in Example 1. […] The total assay time was about 24 hours for this embodiment of the inventive immunoassay method. […]

The target of assay [3] is anti-ghrelin antibody. Put plainly: 60 μl small volume competitive radiolabeled ghrelin binding by bead-linked antibody (bead-based RIA). Particulars: competition with I^125-ghrelin, total volume about 60 μl; stated as comparable to conventional RIA of Example 1. On the procedure:
A particular embodiment of the immunoassay method for competitive dissociable capture of radiolabeled ghrelin peptide by solid phase linked antibody to determine ghrelin peptide concentration in a 60 μl small volume immunoassay sample can be performed as follows:
1. Combine 25 μl of antibody immobilized beads in stock solution prepared in accordance with Example 2B to about 25 μl human plasma or 10 μl-25 μl standard solution.
2. Mix resulting combination and incubate 6 hours at room temperature.
3. Add 10 μl 125I-peptide. Mix and incubate overnight (16-18 hrs.) at 4° C. 4. Add RIA buffer. Mix and centrifuge for 5 minutes at 1,700 g. Aspirate off the supernatant (except total count tubes). 5. Wash once with 1 ml RIA buffer. Aspirate off the supernatant (except total count tubes).
6. Measure and record counts per minute for each assay tube.
The plasma concentration was interpolated from standard curves and indicate about 18.7 pg in 150 μl solution. The amounts of isotope labeled-ligands applied (as indicated in total counts tubes) was twice that of the conventional RIA as described in Example 1. […]

Regarding “I^125-ghrelin: I^125-labeled ghrelin peptide used as labeled particle (GSSFLSPEHQRVQQRKESKKPPAKLQPR; ends and bridges not checked; also: 125I label, position not given here; UniProt Q9UBU3 24-51, looked up)”, in the assay on anti-ghrelin antibody [1], the “time to saturation binding to antibody-conjugated beads” value is “two hour saturation binding”.

As to “amylin (KCNTATCATQRLANFLVHSSNNFGAILSSTNVGSNTY; not fully specified (C-terminus, bridges); cysteine pairing not given here; also: 125I label, position not given here; UniProt P10997 34-70, looked up) [human amylin, human amylin, adjusted with I^125-amylin, digested with insulysin]”, the “degradation kinetics with insulysin (IDE)” value with insulysin (IDE) is recorded as “pseudo-first order degradation”.

“ghrelin (GSSFLSPEHQRVQQRKESKKPPAKLQPR; ends and bridges not checked; UniProt Q9UBU3 24-51, looked up) [human peptide ghrelin, 28 residues in the naturally occurring form; target particle of the immunoassay]”: the IC50 entry at anti-ghrelin antibody [2] is given as “about 400 pg/ml”; at anti-ghrelin antibody [3] it was “around 400 pg/ml”.

For glucagon, the “degradation kinetics with insulysin (IDE)” value with insulysin (IDE) is listed as “pseudo-first order degradation”. For the same substance, the “concentration in immunoassay sample upon degradation with insulysin” value with insulysin (IDE) (increasing duration of incubation with IDE at 37° C., FIG. 10) is recorded as “decreases”.
